# Measurements reported in PubChem BioAssay AID1963858 (Molecular Pharmacology Branch, DTP, NCI, 2024).
# System: HOP-62 multicell spheroids with HUVEC/MSC, viability
# Assay: Anticancer human tumor HOP-62 cell line growth inhibition [KRAS2];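 also: viability read after a week of compound exposure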;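 as to viability, T/C: 100% = DMSO vehicle-treated spheroids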
# Conditions: for IC50: curve of first compound; for viability, T/C: stronger effect = lower value
# How it was run: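 Combination screen of spheroid viability in tumor-cell co-cultures with endothelial (HUVEC) and mesenchymal stem cell stroma. Each agent was tested in half-log dilutions, topping at clinical Cmax or at 10 microM without a known Cmax.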
# [1] = second compound 0.1 µM, first compound 0.0316 µM
# [2] = second compound 0.1 µM, first compound 0.1 µM
# [3] = second compound 0.1 µM, first compound 0.316 µM
# [4] = second compound 0.1 µM, first compound 1 µM
# [5] = second compound 0.1 µM, first compound 3.16 µM
# [6] = second compound 0.1 µM, first compound 10 µM
# [7] = second compound 0.316 µM, first compound 0.0316 µM
# [8] = second compound 0.316 µM, first compound 0.1 µM
# [9] = second compound 0.316 µM, first compound 0.316 µM
# [10] = second compound 0.316 µM, first compound 1 µM
# [11] = second compound 0.316 µM, first compound 3.16 µM
# [12] = second compound 0.316 µM, first compound 10 µM
# [13] = second compound 1 µM, first compound 0.0316 µM
# [14] = second compound 1 µM, first compound 0.1 µM
# [15] = second compound 1 µM, first compound 0.316 µM
# [16] = second compound 1 µM, first compound 1 µM
# [17] = second compound 1 µM, first compound 3.16 µM
# [18] = second compound 1 µM, first compound 10 µM
# [19] = second compound 3.16 µM, first compound 0.0316 µM
# [20] = second compound 3.16 µM, first compound 0.1 µM
# [21] = second compound 3.16 µM, first compound 0.316 µM
# [22] = second compound 3.16 µM, first compound 1 µM
# [23] = second compound 3.16 µM, first compound 3.16 µM
# [24] = second compound 3.16 µM, first compound 10 µM
# [25] = second compound 10 µM, first compound 0.0316 µM
# [26] = second compound 10 µM, first compound 0.1 µM
# [27] = second compound 10 µM, first compound 0.316 µM
# [28] = second compound 10 µM, first compound 1 µM
# [29] = second compound 10 µM, first compound 3.16 µM
# [30] = second compound 10 µM, first compound 10 µM
# [31] = second compound 0.0316 µM, first compound 0.0316 µM
# [32] = second compound 0.0316 µM, first compound 0.1 µM
# [33] = second compound 0.0316 µM, first compound 0.316 µM
# [34] = second compound 0.0316 µM, first compound 1 µM
Structure (SMILES),IC50 (second compound 0.1 µM) [nM],IC50 (second compound 0.316 µM) [nM],IC50 (second compound 1 µM) [nM],IC50 (second compound 3.16 µM) [nM],"viability, T/C [1] [%]","viability, T/C [2] [%]","viability, T/C [3] [%]","viability, T/C [4] [%]","viability, T/C [7] [%]","viability, T/C [8] [%]","viability, T/C [9] [%]","viability, T/C [10] [%]","viability, T/C [13] [%]","viability, T/C [14] [%]","viability, T/C [15] [%]","viability, T/C [16] [%]","viability, T/C [19] [%]","viability, T/C [20] [%]","viability, T/C [21] [%]","viability, T/C [22] [%]",further results
CCNC(=O)CC1N=C(c2ccc(Cl)cc2)c2cc(OC)ccc2-n2c(C)nnc21 (stereo not given) + C=CC(=O)N1CCN(c2nc(=O)n(-c3c(C)ccnc3C(C)C)c3nc(-c4c(O)cccc4F)c(F)cc23)C(C)C1,74.2,72.7,66.1,129,67.2,42.7,33.2,22.6,71.2,41.1,30.1,24.9,60.6,45,32.5,24.6,71.4,53.6,36.8,23.3,"IC50 (second compound 10 µM): < 31.6 nM; viability, T/C [5]: 19.3%; viability, T/C [6]: 19.4%; viability, T/C [11]: 21.9%; viability, T/C [12]: 20.4%; viability, T/C [17]: 23%; viability, T/C [18]: 19.8%; viability, T/C [23]: 23.1%; viability, T/C [24]: 19.2%; viability, T/C [25]: 39.2%; viability, T/C [26]: 36.9%; viability, T/C [27]: 25.3%; viability, T/C [28]: 22.2%; viability, T/C [29]: 17.1%; viability, T/C [30]: 17.4%"
CC1(C)CCC(CN2CCN(c3ccc(C(=O)NS(=O)(=O)c4ccc(NCC5CCOCC5)c([N+](=O)[O-])c4)c(Oc4cnc5[nH]ccc5c4)c3)CC2)=C(c2ccc(Cl)cc2)C1 + CC1OCC2(CCN(c3cnc(Sc4ccnc(N)c4Cl)c(N)n3)CC2)C1N,3720,3280,1310,< 31.6,76.5,73,70,72,72.3,62.2,68.3,67.6,62.3,54.4,52,50.1,47.9,45,36.6,26.7,"IC50 (second compound 10 µM): < 31.6 nM; viability, T/C [5]: 54.3%; viability, T/C [6]: 17.2%; viability, T/C [11]: 51.1%; viability, T/C [12]: 12.6%; viability, T/C [17]: 44.6%; viability, T/C [18]: 10.6%; viability, T/C [23]: 18.1%; viability, T/C [24]: 10.7%; viability, T/C [25]: 37.5%; viability, T/C [26]: 32.9%; viability, T/C [27]: 32%; viability, T/C [28]: 26.6%; viability, T/C [29]: 26.5%; viability, T/C [30]: 6.62%"
CC1(C)CCC(CN2CCN(c3ccc(C(=O)NS(=O)(=O)c4ccc(NCC5CCOCC5)c([N+](=O)[O-])c4)c(Oc4cnc5[nH]ccc5c4)c3)CC2)=C(c2ccc(Cl)cc2)C1 + COc1cc2nc(C)nc(NC(C)c3cc(N)cc(C(F)(F)F)c3)c2cc1OC1CCOC1,4240,4580,3430,1660,84.1,92.3,79.6,82.6,87.5,88.7,78.2,75.3,85.1,88,78.9,64.6,78,75.6,62.8,62.2,"IC50 (second compound 10 µM): 370 nM; viability, T/C [5]: 58%; viability, T/C [6]: 26%; viability, T/C [11]: 65%; viability, T/C [12]: 23.2%; viability, T/C [17]: 57.8%; viability, T/C [18]: 14.5%; viability, T/C [23]: 38.5%; viability, T/C [24]: 26%; viability, T/C [25]: 55.6%; viability, T/C [26]: 56%; viability, T/C [27]: 52.8%; viability, T/C [28]: 39.5%; viability, T/C [29]: 24%; viability, T/C [30]: 7.27%"
COc1cc2nccc(Oc3ccc(NC(=O)C4(C(=O)Nc5ccc(F)cc5)CC4)cc3)c2cc1OC + C=CC(=O)N1CCN(c2nc(=O)n(-c3c(C)ccnc3C(C)C)c3nc(-c4c(O)cccc4F)c(F)cc23)C(C)C1,1710,1460,2210,1470,50.1,52.9,53.9,73.4,54.2,54.7,57.3,67.6,52.9,64.6,63.4,72.3,55.1,57.3,63.8,64.5,"IC50 (second compound 10 µM): < 31.6 nM; viability, T/C [5]: 41.3%; viability, T/C [6]: 21.6%; viability, T/C [11]: 28.2%; viability, T/C [12]: 37.7%; viability, T/C [17]: 44%; viability, T/C [18]: 18.4%; viability, T/C [23]: 29.6%; viability, T/C [24]: 15.4%; viability, T/C [25]: 33%; viability, T/C [26]: 39.8%; viability, T/C [27]: 36.7%; viability, T/C [28]: 36%; viability, T/C [29]: 26.6%; viability, T/C [30]: 6.56%"
CCN1CCN(Cc2ccc(Nc3ncc(F)c(-c4cc(F)c5nc(C)n(C(C)C)c5c4)n3)nc2)CC1 + C=CC(=O)N1CCN(c2nc(OCC3CCCN3C)nc3c2CCN(c2cccc4cccc(C)c24)C3)CC1CC#N,58.2,17.2,< 3.16,< 3.16,54.7,43.8,42.9,31.6,51.3,38.4,34.1,30.1,37.3,37.1,37.8,23.8,1.14,0.26,0.17,0.19,"IC50 (second compound 0.0316 µM): 422 nM; viability, T/C (second compound 0.0316 µM, first compound 0.00316 µM): 91.3%; viability, T/C (second compound 0.0316 µM, first compound 0.01 µM): 83.8%; viability, T/C [31]: 64.1%; viability, T/C [32]: 65%; viability, T/C [33]: 52.4%; viability, T/C [34]: 42.9%; viability, T/C (second compound 0.1 µM, first compound 0.00316 µM): 65.6%; viability, T/C (second compound 0.1 µM, first compound 0.01 µM): 59.4%; viability, T/C (second compound 0.316 µM, first compound 0.00316 µM): 57.3%; viability, T/C (second compound 0.316 µM, first compound 0.01 µM): 51.4%; viability, T/C (second compound 1 µM, first compound 0.00316 µM): 39.4%; viability, T/C (second compound 1 µM, first compound 0.01 µM): 33.8%; viability, T/C (second compound 3.16 µM, first compound 0.00316 µM): 0.71%; viability, T/C (second compound 3.16 µM, first compound 0.01 µM): 1.27%"
O=C(c1cc(Cc2n[nH]c(=O)c3ccccc23)ccc1F)N1CCN(C(=O)C2CC2)CC1 + C=CC(=O)N1CCN(c2nc(OCC3CCCN3C)nc3c2CCN(c2cccc4cccc(C)c24)C3)CC1CC#N,< 31.6,< 31.6,< 31.6,< 31.6,45,40.5,33.8,31.4,38.1,37.8,35.2,26.4,26.4,22.7,39.3,23.1,11.3,1.1,36.4,6.37,"IC50 (second compound 0.0316 µM): 693 nM; viability, T/C [31]: 76.6%; viability, T/C [32]: 66.2%; viability, T/C [33]: 102%; viability, T/C [34]: 35.3%; viability, T/C (second compound 0.0316 µM, first compound 3.16 µM): 34.3%; viability, T/C (second compound 0.0316 µM, first compound 10 µM): 27.8%; viability, T/C [5]: 29%; viability, T/C [6]: 23%; viability, T/C [11]: 20.9%; viability, T/C [12]: 18.6%; viability, T/C [17]: 21.7%; viability, T/C [18]: 21.4%; viability, T/C [23]: 8.8%; viability, T/C [24]: 1.75%"
